Laboratory results as given in patent publication US10751387B2, “Pharmacological therapy for neuronopathic Gaucher disease” (priority 2016, dated 2020).
Where “and” joins values, the source holds several entries; their conditions need not be identical. Equal entries are not always repeated.

Legend:
N2a cells = test: Substrate (GC, GS) levels in N2a cells by ESI-LC-MS/MS; type: cell-based, mouse; details: G6 0.8 μM, 5 days
Method: (§1) N2a cells were maintained in DMEM/10% FBS (Gibco) medium. Neuronal differentiation of N2a was carried out in the differentiation medium containing 0.5% FBS, 10 μM retinoic acid, 50 ng/ml GDNF (Alomore lab) and 1 mM dbcAMP in DMEM for 3 days (37). The differentiated N2a cells were treated with 2 mM CBE for 5 days in the differentiation medium. […]. The medium with the reagents was changed every 2 days. The differentiation status of the neuronal cells was confirmed by anti-Map2 (mature neuron) or anti-Nestin (undifferentiated neuronal cells) antibody staining. Cell viability after each drug treatment was measured by CellTiter-Fluoirm Cell Viability assay (Promega). […]. The cells were from same passage and treated at the same time for all the experiments.
(§2) Glycosphingolipids in mouse brains and N2a cells were extracted with chloroform and methanol as described (83). GC and GS content in the extracts was analysed by ESI-LC-MS/MS using a Waters Quattro Micro API triple quadrupole mass spectrometer (Milford, Mass.) interfaced with Acquity UPLC system as described (35). The concentration of GC and GS in the brain was normalized to mg tissue weight and in the cells was normalized by mg protein in the cell lysate.

CBE-N2a cells [1] = test: Seahorse mitochondrial function assay (OCR) in cells; type: cell-based, mouse; details: CBE-N2a cells vs untreated CBE-N2a; dantrolene 12.5 μM, G6 0.8 μM
Method: (§4) N2a cells were maintained in DMEM/10% FBS (Gibco) medium. Neuronal differentiation of N2a was carried out in the differentiation medium containing 0.5% FBS, 10 μM retinoic acid, 50 ng/ml GDNF (Alomore lab) and 1 mM dbcAMP in DMEM for 3 days (37). The differentiated N2a cells were treated with 2 mM CBE for 5 days in the differentiation medium. […] The medium with the reagents was changed every 2 days. […] Cell viability after each drug treatment was measured by CellTiter-Fluoirm Cell Viability assay (Promega). […] The cells were from same passage and treated at the same time for all the experiments.
Cell numbers were determined using a haemocytometer. Prior to mitochondrial function assay on XF96 Extracellular Flux Analyzers (Seahorse Biosciences), the cells in the wells of XF96 assay plates were washed by gently adding warm assay medium to the side of each well. […] The respiration parameters were calculated by subtracting the average respiration rates before and after the addition of the electron transport inhibitors: oligomycin, FCCP and antimycin A. The parameters include basal respiration (baseline respiration minus antimycin A post injection respiration), ATP production (baseline respiration minus oligomycin post injection respiration), and maximal respiratory (FCCP stimulated respiration minus antimycin A post injection respiration). […]

CBE-N2a cells [2] = test: Substrate (GC, GS) levels in nGD cell model (CBE-N2a) by ESI-LC-MS/MS; type: cell-based, mouse; details: 5 days
Method: as §1, §2

CBE-N2a cells [3] = test: Cytosolic calcium level measurement with Fura-2 after caffeine; type: cell-based, mouse; details: CBE-N2a cells vs untreated; dantrolene 12.5 μM, ryanodine 10 μM, G6 0.8 μM, 5 days; caffeine 10 mM
Method: as §4
Intracellular calcium levels were determined using the Fura-2 QBT Calcium Kit (Molecular Devices, Sunnyvale, Calif.) on 96 well plates by M5 SpectraMax plate reader (Molecular Devices). N2a cells were seeded in each well (20,000/well) with differentiation medium (0.5% FBS, DMEM, 10 AM retinoic acid, 1 mM dbcAMP) for 72 h (37). […] The cell medium was replaced every two days. The treated cells were incubated with Fura-2 QBT dye at 37 C for 1 h for Fura-2 QBT uptake (Fura2 QBT® calcium kit protocol, Molecular Devices). Caffeine (10 mM) was used as an ER calcium efflux stimulant in the assay (38,39). The plate reader setting was 340/380 nm (excitation) and 510 nm (emission). Baseline calcium levels were measured prior to caffeine addition (−30 s). Cytosolic calcium levels were recorded every 30 s for duration of 300 s after addition of caffeine. Relative cytosolic calcium levels were determined with the values at 300 s endpoint minus Os baseline. Relative cytosolic calcium level [Fura-2 AF/F (340/380510 nm] for control or treated cells was calculated by Fura-2 fluorescence unit (FU) measured at 340 nm/510 nm (AF=RFU/340 at 300 s end point minus baseline RFU/340 at 0 s) divided by FU at 380 nm/510 nm (F=RFU/380 at 300 s-baseline RFU/380 at 0 s) (Fura2 QBT® calcium kit protocol, Molecular Devices) and normalized to protein level in cells. Data were collected and analysed by SoftMax Pro software (Molecular Devices) and graphical charts were generated by Graphpad Prism 6.0.

ryanodine receptor = details: vendor listing (Sigma); cited from earlier work
Ryr3 [4] = test: Immunoblot of Ryr3 in CBE-N2a cells; type: cell-based, mouse; details: dantrolene 12.5 μM, untreated 47%
Method: as §1
Half of mice brain (sagittal cut) tissues were homogenized in M-PER Mammalian Protein Extraction Reagent and subjected to electrophoresis. Ryr proteins (−500 kD) in tissues lysate were separated on 3-8% NuPAGE gel running at 90V for 12 h at 4° C. in acetate buffer. […] LC3, CAMK IV and calmodulin were separated on 16% Tris-glycine gel (Novex) and detected by anti-LC3 (1:1000), anti-CAMK IV (1:500) or anti-CAM (1:1000), respectively. The signals were detected with either ECL detection reagent or AP Conjugate Substrate Kit according to manufacturer's instructions. Band intensities on immunoblots were quantitated by Image J (NIH, Baltimore, Va.).

4L;C* mice [5] = test: Survival / life span in nGD mouse model; details: IP 10 mg/kg three days per week
Method: The data are presented as mean±SEM and were analysed by Student's t-test or one-way ANOVA with post-hoc Tukey test using GraphPad Prism 6. The level of significance was set at P<0.05. Survival analysis was performed using Kaplan-Meier and the Mantel-Cox tests.

CAMK IV = test: Immunoblot of CAMK IV in 4L;C* cerebrum; type: in vivo, mouse; design: reference not given here; details: untreated 61% of WT level
Method: (§3) Half of mice brain (sagittal cut) tissues were homogenized in M-PER Mammalian Protein Extraction Reagent and subjected to electrophoresis. Ryr proteins (−500 kD) in tissues lysate were separated on 3-8% NuPAGE gel running at 90V for 12 h at 4° C. in acetate buffer. […] was resolved on 4-12% Bis-Tris gel. The proteins were transferred to PVDF membrane using iBlot 2 gel transfer device following manufacturer's instructions. The blots were incubated with anti-mouse Ryr3 monoclonal antibody (1/250) or anti-13-actin (1:5000) overnight at 4° C. in 1.5% BSA/1.5% milk/PBS buffer. LC3, CAMK IV and calmodulin were separated on 16% Tris-glycine gel (Novex) and detected by anti-LC3 (1:1000), anti-CAMK IV (1:500) or anti-CAM (1:1000), respectively. The signals were detected with either ECL detection reagent or AP Conjugate Substrate Kit according to manufacturer's instructions. Band intensities on immunoblots were quantitated by Image J (NIH, Baltimore, Va.).

4L;C* mice [6] = test: Gait analysis in nGD mouse model
Method: Progression of the neurobehavioural phenotype was assessed by gait analysis to determine sensorimotor function (77,78). Mice were trained to walk through a narrow alley leading into their home-cage. Once trained, paper was placed along the alley floor and the hind paws of each mouse were brushed with nontoxic paint. The mice were then placed at the beginning of the alley. As they walked into their home-cage they left their paw prints on the paper underneath. Stride length and width were determined by measuring the distance between hind paw prints. The 4L;C* and control mice, untreated and non-4L;C* littermates were tested for gait at 30 and 40 days of age.

Ryr1 and Ryr3 = details: reference 58; cited from earlier work
Ryr3 [7] = test: Immunoblot of Ryr3 in 4L;C* cerebrum; type: in vivo, mouse; details: 44 days of age, untreated 9%
Method: as §3

[8] = Body and organ weights of treated mice; type: in vivo, mouse; details: IP 10 mg/kg three days per week

Compound | GC reduction to % of untreated levels (N2a cells) [%] | Oxygen Consumption Rate (OCR: ATP production, basal respiration, maximal respiration) (CBE-N2a cells [1]) | GS level (CBE-N2a cells [2]; CBE-N2a cells vs untreated) | GC reduction to % of untreated levels (CBE-N2a cells [2]; CBE-N2a cells, G6 0.8 μM) [%] | Cytosolic calcium level above baseline after caffeine [Fura-2 ΔF/F] (CBE-N2a cells [3]) | Ryanodine receptor antagonist concentration (ryanodine receptor) [µM] | Ryr3 protein level, % of WT level (Ryr3 [4]) [%] | Life span / survival prolonged compared to untreated 4L;C* mice (4L;C* mice [5]; 10 mg/kg) | Median survival days (4L;C* mice [5]; untreated 44 days) [days] | CAMK IV expression increase (CAMK IV) [%] | Base stride width (4L;C* mice [6]; IP 10 mg/kg three days per week from postnatal day 5, 30 and 40 days of age, vs untreated) | Stride length increase compared to untreated 4L;C* mice (4L;C* mice [6]; IP 10 mg/kg three days per week, 40 days of age) [%] | GC and GS levels (CBE-N2a cells [2]; CBE-N2a cells, dantrolene 12.5 μM, G6 0.8 μM) | Ryr specificity (Ryr1 and Ryr3) | Ryr3 protein level, % of WT (Ryr3 [7]) [%] | Body or organ weights [8]
CC(C)(NC(=O)OC1CN2CCC1CC2)c1cccc(-c2ccc(F)cc2)c1 (stereo not drawn) [G6] | 7 | significant increases | significantly decreased | 26 | significantly lower |  |  |  |  |  |  |  |  |  |  | 
Ryanodine |  |  |  |  | significant reduction | > 10 |  |  |  |  |  |  |  |  |  | 
O=C1CN(/N=C/c2ccc(-c3ccc([N+](=O)[O-])cc3)o2)C(O)=N1 [Dantrolene] |  |  |  |  | significantly reduced |  | 76 | 12.3% and 12.7% | 50 | 28 | significantly reduced | 30 | did not affect | specific to Ryr1 and Ryr3 | 77 | did not affect
